Laboratory results from patent publication US8101642B2, “3-substituted propanamine compounds” (SK Biopharmaceuticals Co., Ltd., priority 2008, dated 2012).

Legend:
[1] = molecular target: T1, human recombinant norepinephrine transporter (Homo sapiens, UniProt P23975); assay: Norepinephrine transporter reuptake inhibition assay ([3H]Norepinephrine uptake); type: cell-based; settings: for inhibition at 0.1 µM: 100 nM, MDCK cells with human recombinant norepinephrine transporter, read-out: Inhibition % at 100 nM NE reuptake
T1 construct: expressed in transfected cells; host or cells: MDCK
T1 sequence (P23975 whole entry): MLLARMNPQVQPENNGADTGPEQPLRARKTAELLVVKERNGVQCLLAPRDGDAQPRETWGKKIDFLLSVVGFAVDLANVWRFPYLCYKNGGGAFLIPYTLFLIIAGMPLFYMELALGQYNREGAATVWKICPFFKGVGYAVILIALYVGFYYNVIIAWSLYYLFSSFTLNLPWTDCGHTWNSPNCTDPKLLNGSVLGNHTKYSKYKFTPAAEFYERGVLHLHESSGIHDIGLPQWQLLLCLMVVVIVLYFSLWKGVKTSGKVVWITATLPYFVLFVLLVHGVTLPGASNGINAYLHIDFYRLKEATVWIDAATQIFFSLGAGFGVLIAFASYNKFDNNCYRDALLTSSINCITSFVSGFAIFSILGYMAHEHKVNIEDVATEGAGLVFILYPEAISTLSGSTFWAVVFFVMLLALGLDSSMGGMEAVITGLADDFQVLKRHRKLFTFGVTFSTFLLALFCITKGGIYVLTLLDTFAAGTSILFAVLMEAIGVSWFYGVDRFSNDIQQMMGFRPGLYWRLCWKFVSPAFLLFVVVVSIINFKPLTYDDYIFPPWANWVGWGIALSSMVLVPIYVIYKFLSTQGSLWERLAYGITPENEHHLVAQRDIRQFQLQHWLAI
Procedure: Norepinephrine Transporter Reuptake Inhibition Assay
MDCK cells with stably expressed human recombinant norepinephrine transporter were plated one day. Test compounds were pre-incubated with cells (2×10^5/ml) in modified Tris-HEPES buffer pH 7.1 for 20 minutes at 25° C. and then they were incubated for additional 10 minutes after 25 nM of [^3H]Norepinephrine was added. A lysate was obtained from solubilized cells and the filtered lysate was counted to determine [^3H]Norepinephrine uptake. Reduction of [^3H]Norepinephrine uptake by 50 percent or more (≧50%) relative to 10 μM desipramine indicates significant inhibitory activity.

[2] = molecular target: T2, human serotonin transporter (Homo sapiens, UniProt P31645); assay: Serotonin transporter reuptake inhibition assay ([3H]Serotonin uptake); type: cell-based; settings: recombinant HEK-293 cells with human serotonin transporter; for inhibition at 0.1 µM: HEK293, 100 nM, read-out: Inhibition % at 100 nM 5-HT reuptake
T2 construct: expressed in transfected cells; host or cells: HEK-293
T2 sequence (P31645 whole entry): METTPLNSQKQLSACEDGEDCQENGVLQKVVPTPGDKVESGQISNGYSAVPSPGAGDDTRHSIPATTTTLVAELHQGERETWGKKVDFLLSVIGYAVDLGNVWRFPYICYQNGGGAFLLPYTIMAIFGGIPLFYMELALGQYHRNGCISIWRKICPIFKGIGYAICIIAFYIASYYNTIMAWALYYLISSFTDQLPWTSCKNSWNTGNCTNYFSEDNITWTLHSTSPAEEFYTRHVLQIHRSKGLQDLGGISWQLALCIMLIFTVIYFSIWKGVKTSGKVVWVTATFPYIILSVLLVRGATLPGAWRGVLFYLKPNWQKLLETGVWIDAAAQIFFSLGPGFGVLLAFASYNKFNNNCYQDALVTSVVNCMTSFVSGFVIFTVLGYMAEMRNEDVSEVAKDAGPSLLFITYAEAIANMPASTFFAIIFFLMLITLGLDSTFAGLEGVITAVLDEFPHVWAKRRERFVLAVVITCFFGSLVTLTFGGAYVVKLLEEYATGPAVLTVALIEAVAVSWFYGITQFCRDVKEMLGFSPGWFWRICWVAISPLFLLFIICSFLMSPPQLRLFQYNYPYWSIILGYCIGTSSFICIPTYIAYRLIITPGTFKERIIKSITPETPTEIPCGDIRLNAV
Procedure: Serotonin Transporter Reuptake Inhibition Assay
The recombinant HEK-293 cells with human serotonin transporter were plated. Test compounds described in table 1 were pre-incubated with cells (2×10^5/ml) in modified Tris-HEPES buffer pH 7.1 for 20 minutes at 25° C. and then they were incubated for additional 10 minutes after 65 nM of [^3H]Serotonin was added. Bound cells were filtered and counted to determine [^3H]Serotonin uptake. Reduction of [^3H]Serotonin uptake by 50 percent or more (≧50%) relative to 10 μM fluoxetine indicates significant inhibitory activity.

[3] = tested on: mice; assay: Acetic acid induced writhing test (AA writhing test); type: in vivo; settings: Mus musculus, 0.5 h, 30sc, reduction in number of writhing vs control group, 0.8% acetic acid ip 30 min after compound
From the text: Acetic Acid Induced Writhing Test (AA Writhing Test)
The Acetic acid-induced writhing test is a well-established nociceptive test using a chemical stimulus. Although several animal models of nociceptive tests have been developed to examine and compare the anti-nociceptive effects of different drugs, the anti-nociceptive effects of antidepressants appear to be test-dependent. Indeed, the acetic acid-induced writhing test is more sensitive to antidepressants than other tests using thermal, mechanical or electrical stimuli.
The animals were subcutaneously treated with the test compound with an injection volume of 10 ml/kg. The group treated with 30% PEG400 or saline served as a control group. Thirty minutes later, the mice were intraperitoneally treated with 0.8% (v/v) acetic acid. Each mouse was then placed in a cage for individual observation. The writhing numbers for 10 minutes were counted. The writhe is operationally defined as a contraction of the abdomen followed by stretching of the hind limbs. The potent ability of the compounds was determined as percent value of reduction in the number of writhing comparing to the control group.

[4] = tested on: mice; assay: Forced swimming test in mice (FST); type: in vivo; settings: Mus musculus, 0.5 h, 30ip, reduction in duration of immobility vs control group, 30 min after administration
Procedure: Forced swimming Test in Mice (FST)
The Forced swimming test is an animal model based on the rodent's behavioral repertoire for screening drugs with potential antidepressant activity. As in several other models used for this goal, an uncontrollable stress stimulus produces behavioral changes that are sensitive to antidepressant treatment.
The mice were intraperitoneally treated with the test compound with an injection volume of […]. The group treated with 30% PEG400 served as a control group. Thirty minutes following administration, mice were individually forced to swim in a transparent glass vessel (14 cm high, 11.5 cm in diameter) filled with 10 cm of water at 25° C. The total duration of immobility (second) was measured during the last 4 minutes of a single 6-min test session. Mice were considered immobile when they made no further attempts to escape other than the movements necessary to keep their heads above the water. The potent ability of the compounds was determined as percent value of reduction in the duration of immobility comparing to the control group.

[5] = molecular target: T3, human recombinant dopamine transporter (Homo sapiens, UniProt Q01959); assay: Dopamine transporter reuptake inhibition assay ([3H]Dopamine uptake); type: cell-based; settings: CHO-K1 cells with human recombinant dopamine transporter; for inhibition at 0.1 µM: 100 nM, read-out: Inhibition % at 100 nM DA reuptake
T3 construct: expressed in transfected cells; host or cells: CHO-K1
T3 sequence (Q01959 whole entry): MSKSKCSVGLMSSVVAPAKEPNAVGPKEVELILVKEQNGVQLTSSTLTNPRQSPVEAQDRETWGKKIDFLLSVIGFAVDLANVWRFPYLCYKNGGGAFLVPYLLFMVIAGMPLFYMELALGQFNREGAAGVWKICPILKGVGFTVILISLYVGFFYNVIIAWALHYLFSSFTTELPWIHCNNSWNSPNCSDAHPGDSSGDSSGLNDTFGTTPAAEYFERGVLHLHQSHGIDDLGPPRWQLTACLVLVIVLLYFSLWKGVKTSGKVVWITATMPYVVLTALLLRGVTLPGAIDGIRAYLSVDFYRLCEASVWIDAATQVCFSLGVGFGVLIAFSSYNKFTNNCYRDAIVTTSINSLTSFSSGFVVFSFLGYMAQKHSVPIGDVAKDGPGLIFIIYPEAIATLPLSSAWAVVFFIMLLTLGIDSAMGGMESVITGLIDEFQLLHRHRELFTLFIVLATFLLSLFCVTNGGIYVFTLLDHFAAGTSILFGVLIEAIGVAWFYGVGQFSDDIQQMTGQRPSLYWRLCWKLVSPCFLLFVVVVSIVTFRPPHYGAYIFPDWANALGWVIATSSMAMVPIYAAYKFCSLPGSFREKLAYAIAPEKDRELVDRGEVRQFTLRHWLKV
Procedure: Dopamine Transporter Reuptake Inhibition Assay
CHO-K1 cells with human recombinant dopamine transporter were plated. Test compounds were pre-incubated with cells (4×10^5/ml) in modified Tris-HEPES buffer pH 7.1 for 20 minutes at 25° C. and then they were incubated for additional 10 minutes after 50 nM of [^3H]Dopamine was added. A lysate is obtained from solubilized cells and counted to determine [^3H]Dopamine uptake. Reduction of [^3H]Dopamine uptake by 50 percent or more (≧50%) relative to 10 μM nomifensine indicates significant inhibitory activity.

[6] = tested on: mice; assay: Marble burying test; type: in vivo; settings: reduction in number of marbles buried vs control group, 30 min after treatment
From the text: The Marble burying test is a screening tool for putative anxiolytics. In this test, control mice naturally bury glass marbles in the cage bedding and the administration of anxiolytic compounds, including Diazepam, reduces the number of buried marbles. Positive compounds in the marble burying test including selective serotonin reuptake inhibitor may be especially beneficial to obsessive-compulsive disorder.
A group of mice was intraperitoneally treated with test compound dissolved in 30% PEG400 with an injection volume of 10 ml/kg. The group treated with only 30% PEG400 served as a control group. Thirty minutes after the treatment, the animals were individually placed in a polycarbonate cage which was same as used for animal housing with an open top located within a quiet room. Each cage consisted of ⅛ inch corn bedding 5 cm deep. Twenty four clean glass marbles (15 mm diameter) were evenly spaced in four rows of six on top of the bedding. Each mouse was left in the cage for 30 minutes and the number of marbles buried (buried more than ½ or ⅔) was counted. The potent ability of the compounds was determined as percent value of reduction in the number of marbles buried comparing to the control group.

Structure (SMILES) | inhibition at 0.1 µM [1] [%] | inhibition at 0.1 µM [2] [%] | inhibition in vivo at 30 mg/kg [3] [%] | inhibition in vivo at 30 mg/kg [4] [%] | inhibition at 0.1 µM [5] [%] | Reduction % at 30ip [6] [%] | Inhibition % at 100 nM NE reuptake [1] [%] | Inhibition % at 100 nM 5-HT reuptake [2] [%] | Inhibition % at 100 nM DA reuptake [5] [%] | Reduction % (at 10ip) ([6]; 10ip) [%]
CN(C)CCC(c1ccc(Cl)c(Cl)c1)n1ncnn1 (stereo not drawn) [Example 1, [3-(3,4-Dichloro-phenyl)-3-tetrazol-2-yl-propyl]-dimethyl-amine] | 37 | 27 | 55.3 | 24.9 | 58 | 54.8 |  |  |  | 
CNCCC(c1ccc(Cl)c(Cl)c1)n1ncnn1 (stereo not drawn) [Example 2, [3-(3,4-Dichloro-phenyl)-3-tetrazol-2-yl-propyl]-methyl-amine] |  |  | 50.3 | 82.4 |  | 100 | 56 | 35 | 48 | 
CN(C)CCC(c1ccc2ccccc2c1)n1ncnn1 (stereo not drawn) [Example 6, Dimethyl-(3-naphthalen-2-yl-3-tetrazol-2-yl-propyl)-amine] | 30 | 41 | 60.2 | 41.4 | 20 | 87.7 |  |  |  | 
CN(C)CCC(c1ccc2cc(Cl)ccc2c1)n1ncnn1 (stereo not drawn) [Example 14, [3-(6-Chloro-naphthalen-2-yl)-3-tetrazol-2-yl-propyl]-dimethyl-amine] | 32 | 46 |  |  | 18 |  |  |  |  | 
COc1ccc2cc(C(CCN(C)C)n3ncnn3)ccc2c1 (stereo not drawn) [Example 21, [3-(6-Methoxy-naphthalen-2-yl)-3-tetrazol-2-yl-propyl]-dimethyl-amine] | 39 | 44 |  |  | 36 |  |  |  |  | 
CN(C)CCC(c1ccc2cc(F)ccc2c1)n1ncnn1 (stereo not drawn) [Example 50, [3-(6-Fluoro-naphthalen-2-yl)-3-tetrazol-2-yl-propyl]-dimethyl-amine] | 12 | 61 | 53.8 | 35 | 7 | 86.2 |  |  |  | 
Cc1nnn(C(CCN(C)C)c2ccc3cc(F)ccc3c2)n1 (stereo not drawn) [Example 51, [3-(6-Fluoro-naphthalen-2-yl)-3-(5-methyl-tetrazol-2-yl)-propyl]-dimethyl-amine] | 10 | 61 | 51.4 | 24.5 | 6 | 72.4 |  |  |  | 
CNCCC(c1ccc2ccccc2c1)n1ncnn1 (stereo not drawn) [Example 119, Methyl-(3-naphthalen-2-yl-3-tetrazol-2-yl-propyl)-amine] | 84 | 78 |  | 43.2 | 10 |  |  |  |  | 
CNCCC(c1ccc2cc(C)ccc2c1)n1ncnn1 (stereo not drawn) [Example 122, Methyl-[3-(6-methyl-naphthalen-2-yl)-3-tetrazol-2-yl-propyl]-amine] | 55 | 93 |  | 43.7 | 3 |  |  |  |  | 
CNCC[C@@H](c1ccc(Cl)c(Cl)c1)n1nnc(C)n1 [Example 129, (3S)-3-(3,4-dichlorophenyl)-N-methyl-3-(5-methyl-2H-tetrazol-2-yl)propan-1-amine] | 84 | 43 | 94.4 | 36.7 | 62 | 94.3 |  |  |  | 
CNCCC(c1cc2ccccc2cc1OC)n1nnc(C)n1 (stereo not drawn) [Example 135, [3-(3-Methoxy-naphthalen-2-yl)-3-(5-methyl-tetrazol-2-yl)-propyl]-methyl-amine] | 17 | 47 |  |  | -1 |  |  |  |  | 
CNCCC(c1ccc2cc(F)ccc2c1)n1ncnn1 (stereo not drawn) [Example 136, [3-(6-Fluoro-naphthalen-2-yl)-3-tetrazol-2-yl-propyl]-methyl-amine] | 25 | 59 |  |  | 6 |  |  |  |  | 
CNCCC(c1ccc2cc(F)ccc2c1)n1nnc(C)n1 (stereo not drawn) [Example 137, [3-(6-Fluoro-naphthalen-2-yl)-3-(5-methyl-tetrazol-2-yl)-propyl]-methyl-amine] | 39 | 58 |  |  | 10 |  |  |  |  | 
CNCCC(c1ccc2cc(OC)ccc2c1)n1ncnn1 (stereo not drawn) [Example 166, [3-(6-Methoxy-naphthalen-2-yl)-3-tetrazol-2-yl-propyl]-methyl-amine] | 70 | 88 |  | 28.9 | 4 |  |  |  |  | 
CNCCC(c1ccc2cc(OC)ccc2c1)n1nnc(C)n1 (stereo not drawn) [Example 167, [3-(6-Methoxy-naphthalen-2-yl)-3-(5-methyl-tetrazol-2-yl)-propyl]-methyl-amine] | 84 | 82 | 52.1 | 17.9 | 3 |  |  |  |  | 56.9
CNCC[C@@H](c1ccc2ccccc2c1)n1nnc(C)n1 [Example 188, (3S)-Methyl-[3-(5-methyl-tetrazol-2-yl)-3-naphthalen-2-yl-propyl]-amine] | 79 | 82 | 39.5 | 36.7 | 7 | 70.7 |  |  |  | 
